Test results from ChEMBL document CHEMBL1201862, “PubChem BioAssay data set” (2004).
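In this assay, cells in 96-well plates receive the compound at five concentrations for 48 hours. Endpoints are linearly interpolated between the surrounding concentrations. At the GI50, growth is halved.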 Calls of active or inactive are those of the source. No stated cut-off is given here; in the data, active = GI50 up to about 1.1 µM and inactive = higher.

Experiments:
Assay in all cases: inhibition of tumour cell growth, NCI panel, 48 h
786-0 = system: 786-0
A498 = system: A498
ACHN = system: ACHN
EKVX = system: EKVX
HCC 2998 = system: HCC 2998
HCT-15 = system: HCT-15
HL-60 = system: HL-60
HT-29 = system: HT-29
KM12 = system: KM12
MDA-MB-231 = system: MDA-MB-231
RXF 393 = system: RXF 393
SF-268 = system: SF-268
SF-539 = system: SF-539
SN12C = system: SN12C
UACC-257 = system: UACC-257
UO-31 = system: UO-31
NCI-H522 = system: NCI-H522
SK-MEL-28 = system: SK-MEL-28
SW-620 = system: SW-620

Row | SMILES | GI50 (786-0) | GI50 (A498) | GI50 (ACHN) | GI50 (EKVX) | GI50 (HCC 2998) | GI50 (HCT-15) [µM] | GI50 (HL-60) | GI50 (HT-29) | GI50 (KM12) | GI50 (MDA-MB-231) | GI50 (RXF 393) | GI50 (SF-268) | GI50 (SF-539) | GI50 (SN12C) | GI50 (UACC-257) | GI50 (UO-31) | GI50 (NCI-H522) | GI50 (SK-MEL-28) | GI50 (SW-620)
1 | c1ccc2nc3c(nc2c1)sc1nc2ccccc2n13 | 46.1 µM (inactive) | 26.1 µM (inactive) | 92 µM (inactive) | > 100 µM (inactive) | > 100 µM (inactive) | > 100 | > 100 µM (inactive) | > 100 µM (inactive) | > 100 µM (inactive) | > 100 µM (inactive) | 28.4 µM (inactive) | 56.1 µM (inactive) | > 100 µM (inactive) | > 100 µM (inactive) | > 100 µM (inactive) | > 100 µM (inactive) | – | – | –
2 | CC1C2CC(CC2N)C1(C)C (stereo not drawn) | > 100 µM (inactive) | > 100 µM (inactive) | > 100 µM (inactive) | > 100 µM (inactive) | > 100 µM (inactive) | – | > 100 µM (inactive) | > 100 µM (inactive) | > 100 µM (inactive) | > 100 µM (inactive) | – | > 100 µM (inactive) | > 100 µM (inactive) | > 100 µM (inactive) | > 100 µM (inactive) | > 100 µM (inactive) | > 100 µM (inactive) | > 100 µM (inactive) | > 100 µM (inactive)
3 | Cc1c2c(n(CCc3ccccc3)c1C)N(C)N=C(C#N)S2(=O)=O | > 100 µM (inactive) | > 10 µM (inactive) | > 100 µM (inactive) | > 100 µM (inactive) | > 100 µM (inactive) | > 100 | – | > 100 µM (inactive) | > 100 µM (inactive) | > 100 µM (inactive) | > 100 µM (inactive) | > 100 µM (inactive) | 7.69 µM (inactive) | > 100 µM (inactive) | > 100 µM (inactive) | > 100 µM (inactive) | > 100 µM (inactive) | > 100 µM (inactive) | > 100 µM (inactive)
4 | CCOC(=O)C1(Cc2ccccc2)Cc2cc3c(cc2C1=O)CCC3 (stereo not drawn) | > 100 µM (inactive) | > 100 µM (inactive) | > 100 µM (inactive) | > 100 µM (inactive) | > 100 µM (inactive) | > 100 | > 100 µM (inactive) | > 100 µM (inactive) | > 100 µM (inactive) | > 100 µM (inactive) | > 100 µM (inactive) | > 100 µM (inactive) | > 100 µM (inactive) | > 100 µM (inactive) | > 100 µM (inactive) | > 100 µM (inactive) | – | > 100 µM (inactive) | > 100 µM (inactive)
5 | Cn1c(=O)c2c(nc(N/N=C3/SCC(=O)N3Cc3ccccc3)n2C)n(C)c1=O | > 100 µM (inactive) | > 100 µM (inactive) | > 100 µM (inactive) | 94.2 µM (inactive) | > 100 µM (inactive) | 85.5 | – | 48.4 µM (inactive) | 94.2 µM (inactive) | 60.7 µM (inactive) | > 100 µM (inactive) | 60.7 µM (inactive) | 25.6 µM (inactive) | > 100 µM (inactive) | > 100 µM (inactive) | > 100 µM (inactive) | 71.4 µM (inactive) | > 100 µM (inactive) | –
6 | O=c1[nH]cc(NCCCl)c(=O)[nH]1 | > 100 µM (inactive) | > 100 µM (inactive) | > 100 µM (inactive) | > 100 µM (inactive) | > 100 µM (inactive) | > 100 | – | > 100 µM (inactive) | > 100 µM (inactive) | > 100 µM (inactive) | > 100 µM (inactive) | > 100 µM (inactive) | > 100 µM (inactive) | > 100 µM (inactive) | > 100 µM (inactive) | > 100 µM (inactive) | > 100 µM (inactive) | > 100 µM (inactive) | > 100 µM (inactive)
7 | O=C(CC(c1ccccc1)C1C(=O)NC(=S)NC1=O)c1ccc([N+](=O)[O-])cc1 (stereo not drawn) | > 100 µM (inactive) | > 100 µM (inactive) | > 100 µM (inactive) | 31.8 µM (inactive) | 31.6 µM (inactive) | > 100 | > 100 µM (inactive) | > 100 µM (inactive) | 65.2 µM (inactive) | > 100 µM (inactive) | – | 72.8 µM (inactive) | > 100 µM (inactive) | > 100 µM (inactive) | > 100 µM (inactive) | > 100 µM (inactive) | > 100 µM (inactive) | > 100 µM (inactive) | > 100 µM (inactive)
8 | CC(=O)Oc1c2oc3ccc(Cl)cc3c(=O)c2c(O)c2ccsc12 | > 100 µM (inactive) | > 100 µM (inactive) | > 100 µM (inactive) | > 100 µM (inactive) | > 100 µM (inactive) | > 100 | > 100 µM (inactive) | > 100 µM (inactive) | > 100 µM (inactive) | 28.2 µM (inactive) | > 100 µM (inactive) | > 100 µM (inactive) | > 100 µM (inactive) | > 100 µM (inactive) | > 100 µM (inactive) | > 100 µM (inactive) | – | > 100 µM (inactive) | > 100 µM (inactive)
9 | CC(=O)NC(C)(C)C1CC=C(C)CC1 (stereo not drawn) | > 100 µM (inactive) | > 100 µM (inactive) | > 100 µM (inactive) | > 100 µM (inactive) | > 100 µM (inactive) | > 100 | > 100 µM (inactive) | > 100 µM (inactive) | > 100 µM (inactive) | > 100 µM (inactive) | > 100 µM (inactive) | > 100 µM (inactive) | > 100 µM (inactive) | > 100 µM (inactive) | > 100 µM (inactive) | > 100 µM (inactive) | – | > 100 µM (inactive) | > 100 µM (inactive)
10 | COC(=O)C1C2CCCN2OC1(C)CO (stereo not drawn) | > 100 µM (inactive) | > 100 µM (inactive) | > 100 µM (inactive) | > 100 µM (inactive) | – | > 100 | > 100 µM (inactive) | > 100 µM (inactive) | > 100 µM (inactive) | > 100 µM (inactive) | – | > 100 µM (inactive) | > 100 µM (inactive) | > 100 µM (inactive) | > 100 µM (inactive) | > 100 µM (inactive) | > 100 µM (inactive) | > 100 µM (inactive) | > 100 µM (inactive)
11 | Cc1cccc2c(N)c3cccc(C(=O)NCC[N+](C)(C)Cc4ccccc4[N+](=O)[O-])c3nc12 | 4.22 µM (inactive) | 8.97 µM (inactive) | 2.31 µM (inactive) | 31.5 µM (inactive) | 9.06 µM (inactive) | > 20.3 | – | 5.22 µM (inactive) | 13.4 µM (inactive) | 13.6 µM (inactive) | 9.64 µM (inactive) | 5.12 µM (inactive) | 7.94 µM (inactive) | 2.11 µM (inactive) | 24.3 µM (inactive) | 13.4 µM (inactive) | 4.94 µM (inactive) | 29.7 µM (inactive) | 7.6 µM (inactive)
12 | O=C1C(c2c(O)[nH]c3ccc([N+](=O)[O-])cc23)=Nc2ccccc21 | 59.8 µM (inactive) | 98.2 µM (inactive) | 40.5 µM (inactive) | > 100 µM (inactive) | > 100 µM (inactive) | > 100 | – | > 100 µM (inactive) | > 100 µM (inactive) | 31.7 µM (inactive) | 13 µM (inactive) | > 100 µM (inactive) | – | > 100 µM (inactive) | > 100 µM (inactive) | > 100 µM (inactive) | > 100 µM (inactive) | > 100 µM (inactive) | > 100 µM (inactive)
13 | COc1ccc(C(c2cc(OC)c(OC)c(OC)c2)N2C(=O)CCC2C(=O)O)cc1 (stereo not drawn) | 73.1 µM (inactive) | 77.1 µM (inactive) | 89.3 µM (inactive) | > 100 µM (inactive) | 50.2 µM (inactive) | 43.9 | 32 µM (inactive) | 35.6 µM (inactive) | 35.6 µM (inactive) | > 100 µM (inactive) | – | > 100 µM (inactive) | 21.2 µM (inactive) | > 100 µM (inactive) | > 100 µM (inactive) | 56.4 µM (inactive) | 52.1 µM (inactive) | 51.1 µM (inactive) | 50.1 µM (inactive)
14 | Brc1ccc2c(c1)-c1nc3c(cc1CC2)CCc1ccc(Br)cc1-3 | > 100 µM (inactive) | > 100 µM (inactive) | > 100 µM (inactive) | > 100 µM (inactive) | > 100 µM (inactive) | > 100 | – | – | > 100 µM (inactive) | > 100 µM (inactive) | > 100 µM (inactive) | > 100 µM (inactive) | – | > 100 µM (inactive) | > 100 µM (inactive) | > 100 µM (inactive) | > 100 µM (inactive) | > 100 µM (inactive) | > 100 µM (inactive)
15 | CCN1C(=O)/C(=C2\SC(c3ccccc3)(c3ccccc3)c3ccccc32)SC1=S | 43.3 µM (inactive) | 46 µM (inactive) | > 100 µM (inactive) | 75.9 µM (inactive) | > 100 µM (inactive) | > 100 | – | > 100 µM (inactive) | > 100 µM (inactive) | 72.3 µM (inactive) | > 100 µM (inactive) | 36.3 µM (inactive) | 46.7 µM (inactive) | > 100 µM (inactive) | > 100 µM (inactive) | > 100 µM (inactive) | > 100 µM (inactive) | 94.2 µM (inactive) | –
16 | NCCSCc1ccccc1Cl | 42.7 µM (inactive) | 27 µM (inactive) | > 100 µM (inactive) | 34.3 µM (inactive) | 18.6 µM (inactive) | > 100 | – | 36.1 µM (inactive) | 47.3 µM (inactive) | 45.6 µM (inactive) | 83.8 µM (inactive) | 95.7 µM (inactive) | – | 43.4 µM (inactive) | 23.3 µM (inactive) | > 100 µM (inactive) | 48.2 µM (inactive) | 64.6 µM (inactive) | 33.4 µM (inactive)
